Source: patent US20070196361A1, “Long term administration of pharmacologically active agents” (priority 1999, published 2007)

Legend:
[1] = system: cancers responsive to paclitaxel; assay: Long term administration of paclitaxel at sub-therapeutic dose levels in cancer treatment; format: in vivo
Text: In rapidly dividing cells as in a tumor, different cells are in different phases of the cell cycle at any given time.
The entire dose is usually given on the first day of the 3 week cycle.

tumor cell lines = details: cited from earlier work

In the case of `CC(=O)O[C@H]1C(=O)[C@@]2(C)[C@H]([C@H](OC(=O)c3ccccc3)[C@]3(O)C[C@H](OC(=O)[C@H](O)[C@@H](NC(=O)c4ccccc4)c4ccccc4)C(C)=C1C3(C)C)[C@]1(OC(C)=O)CO[C@@H]1C[C@@H]2O` [paclitaxel], the “benefit in the treatment of cancers responsive to paclitaxel” value ([1]; continuous administration over 3 weeks, total cumulative dose e.g. 50-150 mg/m^2) is listed as “significant benefit is obtained”, the “benefit in the treatment of cancers responsive to paclitaxel” value ([1]; plasma levels maintained at 0.01-0.05 μg/ml over a week or longer) is listed as “significant benefit is obtained” and the “concentration at which paclitaxel is active on tumor cell lines” value (tumor cell lines; in vitro, tumor cell lines) is listed as roughly 0.5 µg/mL. For the same compound, the “levels high enough to be cytotoxic to the tumor cells” value (tumor cell lines; tumor cells of the cancer being treated) was 500 to 1000 ng/mL.
